Each structure is given as a SMILES string.

Consider 35 molecules from patent US20080125432A1 (Devgen NV, priority 2004, published 2008).

On to `COc1ccccc1Nc1nc(C)c(C(=O)NCc2ccc(C(=O)N(C)C)cc2)s1` [Compound 137, 2-(2-methoxy-phenylamino)-4-methyl-thiazole-5-carboxylic acid 4-dimethylcarbamoyl-benzylamide], for which the melting point (usually the temperature, or range, at which the solid turns liquid) is 219.1 to 226.7 °C.

`COc1ccccc1Nc1nc(C)c(C(=O)NCc2ccccc2C)s1` [Compound 140, 2-(2-methoxy-phenylamino)-4-methyl-thiazole-5-carboxylic acid 2-methyl-benzylamide] registered a melting point of 118.3 to 121.7 °C. In turn, `COc1ccccc1Nc1nc(C)c(C(=O)NCc2cccc(C)c2)s1` [Compound 141, 2-(2-methoxy-phenylamino)-4-methyl-thiazole-5-carboxylic acid 3-methyl-benzylamide] came in with a melting point of 148.1 to 149.9 °C. The figure for `COc1ccccc1Nc1nc(C)c(C(=O)NCc2ccccc2-c2ccccc2)s1` [Compound 143, 2-(2-methoxy-phenylamino)-4-methyl-thiazole-5-carboxylic acid (biphenyl-2-ylmethyl)-amide] is 128.4 to 132 °C; for `COc1ccccc1Nc1nc(C)c(C(=O)NCc2cccc(-c3ccccc3)c2)s1` [Compound 144, 2-(2-methoxy-phenylamino)-4-methyl-thiazole-5-carboxylic acid (biphenyl-3-ylmethyl)-amide] it is 126.6 to 128.3 °C; for `COc1ccccc1Nc1nc(C)c(C(=O)NCc2ccc(-c3ccccc3)cc2)s1` [Compound 145, 2-(2-methoxy-phenylamino)-4-methyl-thiazole-5-carboxylic acid (biphenyl-4-ylmethyl)-amide] it is 189.6 to 191.2 °C. The figure for `COc1ccccc1Nc1nc(C)c(C(=O)NCc2ccccc2Br)s1` [Compound 146, 2-(2-methoxy-phenylamino)-4-methyl-thiazole-5-carboxylic acid 2-bromo-benzylamide] is 159.6 to 164 °C; for `COc1ccccc1Nc1nc(C)c(C(=O)NCc2cccc(Br)c2)s1` [Compound 147, 2-(2-methoxy-phenylamino)-4-methyl-thiazole-5-carboxylic acid 3-bromo-benzylamide] it is 161.3 to 164.1 °C. The figure for `COC[C@@H](NC(=O)c1sc(Nc2ccccc2OC)nc1C)c1ccccc1` [Compound 149, 2-(2-methoxy-phenylamino)-4-methyl-thiazole-5-carboxylic acid ((S)-2-methoxy-1-phenyl-ethyl)-amide] is 118.8 to 129.6 °C; for `COc1ccccc1N(C)c1nc(C)c(C(=O)N[C@H](CO)c2ccccc2)s1` [Compound 150, 2-[(2-methoxy-phenyl)-methyl-amino]-4-methyl-thiazole-5-carboxylic acid ((S)-2-hydroxy-1-phenyl-ethyl)-amide] it is 119.4 °C; for `COC(=O)[C@H](NC(=O)c1sc(Nc2ccccc2OC)nc1C)c1ccccc1` [Compound 151, (R)-{[2-(2-methoxy-phenylamino)-4-methyl-thiazole-5-carbonyl]-amino}-phenyl-aceticacid methyl ester] it is 131.4 to 137.9 °C. The molecule `COC(=O)[C@@H](NC(=O)c1sc(Nc2ccccc2OC)nc1C)c1ccccc1` [Compound 152, (S)-{[2-(2-methoxy-phenylamino)-4-methyl-thiazole-5-carbonyl]-amino}-phenyl-aceticacid methyl ester] displayed a melting point of 133.5 to 135.7 °C. `Cc1nc(Nc2ccncc2)sc1C(=O)N[C@H]1CCC[C@@H]1OCc1ccccc1` [Compound 153, 4-methyl-2-(pyridin-4-ylamino)-thiazole-5-carboxylic acid ((1S,2S)-2-benzyloxycyclopent-1-yl) amide] yielded a melting point of 78.1 to 81.7 °C. To `COc1ccccc1Nc1nc(C)c(C(=O)NCc2ccccc2OC(F)(F)F)s1` [Compound 157, 2-(2-methoxy-phenylamino)-4-methyl-thiazole-5-carboxylic acid 2-trifluoromethoxy-benzylamide] belongs 76.1 to 80.2 °C; to `COc1ccccc1Nc1nc(C)c(C(=O)NCc2cccc(OC(F)(F)F)c2)s1` [Compound 158, 2-(2-methoxy-phenylamino)-4-methyl-thiazole-5-carboxylic acid 3-trifluoromethoxy-benzylamide], 96.1 to 100.3 °C. Regarding `COc1ccccc1Nc1nc(C)c(C(=O)NCc2ccc(OC(F)(F)F)cc2)s1` [Compound 159, 2-(2-methoxy-phenylamino)-4-methyl-thiazole-5-carboxylic acid 4-trifluoromethoxy-benzylamide], the melting point fell in the range of 135.2 to 138.9 °C.

As for `COc1ccccc1Nc1nc(C)c(C(=O)NCc2ccc3c(c2)OCO3)s1` [Compound 162, 2-(2-methoxy-phenylamino)-4-methyl-thiazole-5-carboxylic acid (benzo[1,3]dioxol-5-ylmethyl)-amide], the melting point lay within 166 to 167.4 °C.

In turn, `COc1ccccc1Nc1nc(C)c(C(=O)N2CC=C(c3ccc(F)cc3)CC2)s1` [Compound 163, [4-(4-fluoro-phenyl)-3,6-dihydro-2H-pyridin-1-yl]-[2-(2-methoxy-phenylamino)-4-methyl-thiazol-5-yl]-methanone] registered a melting point of 144.4 to 149.2 °C.

Molecule `COc1ccccc1Nc1nc(C)c(C(=O)NC2CCc3ccccc32)s1` (centres unmarked) [Compound 164, 2-(2-methoxy-phenylamino)-4-methyl-thiazole-5-carboxylic acid indan-1-ylamide] registered a melting point of 146.2 to 148 °C. To `COc1ccccc1Nc1nc(C)c(C(=O)Nc2ccc(Cn3cccn3)cc2)s1` [Compound 166, 2-(2-methoxy-phenylamino)-4-methyl-thiazole-5-carboxylic acid (4-pyrazol-1-ylmethyl-phenyl)-amide] belongs 211.3 to 214.4 °C; to `COc1ccccc1Nc1nc(C)c(C(=O)N2CCC(c3ccc(C)cc3)CC2)s1` [Compound 168, [2-(2-methoxy-phenylamino)-4-methyl-thiazol-5-yl]-[4-p-tolyl-piperidin-1-yl]-methanone], 187.7 to 191.5 °C.

Molecule `COc1ccccc1Nc1nc(C)c(C(=O)NC2CCCc3ccccc32)s1` (centres unmarked) [Compound 173, 2-(2-methoxy-phenylamino)-4-methyl-thiazole-5-carboxylic acid (1,2,3,4-tetrahydro-naphthalen-1-yl)-amide] came in with a melting point of 129.4 °C. The figure for `COc1ccccc1Nc1nc(C)c(C(=O)N2CCC(Cc3ccccc3)CC2)s1` [Compound 174, (4-benzyl-piperidin-1-yl)-[2-(2-methoxy-phenylamino)-4-methyl-thiazol-5-yl]-methanone] is 166.8 to 169.2 °C; for `COc1ccccc1Nc1nc(C)c(C(=O)N2CCC(C(=O)c3ccc(F)cc3)CC2)s1` [Compound 175, [4-(4-fluoro-benzoyl)-piperidin-1-yl]-[2-(2-methoxy-phenylamino)-4-methyl-thiazol-5-yl]-methanone] it is 92.6 to 99.6 °C. To `COc1ccccc1Nc1nc(C)c(C(=O)N2CCCC2c2ccccc2)s1` (centres unmarked) [Compound 176, [2-(2-methoxy-phenylamino)-4-methyl-thiazol-5-yl]-(2-phenyl-pyrrolidin-1-yl)-methanone] belongs 113.5 to 117.6 °C; to `COc1ccccc1Nc1nc(C)c(C(=O)N2CCCC2c2ccc(F)cc2)s1` (centres unmarked) [Compound 177, [2-(4-fluoro-phenyl)-pyrrolidin-1-yl]-[2-(2-methoxy-phenylamino)-4-methyl-thiazol-5-yl]-methanone], 94.4 to 106.6 °C. In turn, `Cc1nc(NC(=O)c2ccccc2)sc1C(=O)N[C@H]1CCC[C@@H]1OCc1ccccc1` [Compound 179, 2-benzoylamino-4-methyl-thiazole-5-carboxylic acid ((1S,2S)-2-benzyloxycyclopent-1-yl) amide] yielded a melting point of 97.4 to 110.6 °C. As to `Cc1nc(NC(=O)c2ccc(C#N)cc2)sc1C(=O)N[C@H]1CCC[C@@H]1OCc1ccccc1` [Compound 181, 2-(4-cyano-benzoylamino)-4-methyl-thiazole-5-carboxylic acid ((1S,2S)-2-benzyloxycyclopent-1-yl) amide], the melting point fell in the range of 177.2 to 181.4 °C. The figure for `COc1ccccc1Nc1nc(C)c(C(=O)N[C@@H](C(=O)O)c2ccccc2)s1` [Compound 212, (R)-{[2-(2-methoxy-phenylamino)-4-methyl-thiazole-5-carbonyl]-amino}-phenyl-aceticacid] is 258.6 to 262.9 °C. For `Cc1nc(NC(=O)c2ccc(C(N)=O)cc2)sc1C(=O)N[C@H]1CCC[C@@H]1OCc1ccccc1` [Compound 213, N-[5-((1S,2S)-2-benzyloxy-cyclopentylcarbamoyl)-4-methyl-thiazol-2-yl]-terephthalamide], the melting point was 213.8 to 218.9 °C. The figure for `COc1ccccc1Nc1nc(C)c(C(=O)NC2CCN(Cc3ccccc3)C2)s1` (centres unmarked) [Compound 215, 2-(2-methoxy-phenylamino)-4-methyl-thiazole-5-carboxylic acid (1-benzyl-pyrrolidin-3-yl) amide] is 112.6 to 121.6 °C. The molecule `COc1ccccc1Nc1nc(C)c(C(=O)N(Cc2ccccc2)c2ccccc2)s1` [Compound 216, 2-(2-methoxy-phenylamino)-4-methyl-thiazole-5-carboxylic acid benzyl-phenyl-amide] gave a melting point of 167.2 to 170 °C. The figure for `COc1ccccc1Nc1nc(C)c(C(=O)NCC2COc3ccccc3O2)s1` (centres unmarked) [Compound 217, 2-(2-methoxy-phenylamino)-4-methyl-thiazole-5-carboxylic acid (2,3-dihydro-benzo[1,4]dioxin-2-ylmethyl) amide] is 138.3 to 158.2 °C; for `COc1ccc(CNC(=O)c2sc(Nc3ccccc3OC)nc2C)cc1` [Compound 218, 2-(2-methoxy-phenylamino)-4-methyl-thiazole-5-carboxylic acid 4-methoxybenzylamide] it is 143.9 to 144.8 °C.

Turning to `COc1ccccc1Nc1nc(C)c(C(=O)NCc2c(C)cc(Cl)cc2Cl)s1` [Compound 220, 2-(2-methoxy-phenylamino)-4-methyl-thiazole-5-carboxylic acid 2,4-dichloro-6-methyl-benzylamide], the melting point lay in the range of 142 to 147.7 °C.
